Experimental findings from patent US12421249B2, “Inhibitors of APOL1 and methods of using same” (Vertex Pharmaceuticals Incorporated, priority 2020, dated 2025) are described below.

Structures are written as SMILES. pIC50: −log10 of the molar value. Where only a bound is given, the exact number is not on record here.

The target in this experiment is T1, APOL1 G1 (Homo sapiens, UniProt O14791, I384M/S342G).
T1 sequence (O14791 28-398 S342G/I384M): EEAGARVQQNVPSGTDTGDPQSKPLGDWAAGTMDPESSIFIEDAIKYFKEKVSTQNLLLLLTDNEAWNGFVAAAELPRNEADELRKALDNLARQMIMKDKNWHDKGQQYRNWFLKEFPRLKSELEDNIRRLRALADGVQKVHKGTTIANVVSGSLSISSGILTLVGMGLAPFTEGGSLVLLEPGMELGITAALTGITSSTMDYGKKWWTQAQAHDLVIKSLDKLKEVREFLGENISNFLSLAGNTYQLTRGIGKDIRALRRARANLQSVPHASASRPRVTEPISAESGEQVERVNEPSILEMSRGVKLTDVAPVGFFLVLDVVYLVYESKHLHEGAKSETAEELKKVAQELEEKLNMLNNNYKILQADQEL
Kind of experiment: MultiTox-Fluor Multiplex Cytotoxicity Assay in tet-inducible APOL1 G1 T-REx-HEK293 cells (clone G1 DC3.25). The format is cell-based. The note with it: Multi-Tox Assay, APOL1 variant cell line not given; for Emax: read-out: Multi-Tox Assay Max Activity (%); for pIC50: IP50 = IC50 for cell proliferation. More on the design: expressed in transfected cells; host or cells: T-REx HEK293, pAAVS1-Puro-APOL1 G1, clone G1 DC3.25. As for the experimental part: The MultiTox-Fluor Multiplex Cytotoxicity Assay is a single-reagent-addition, homogeneous, fluorescence assay that measures the number of live and dead cells simultaneously in culture wells. The assay measures cell viability and cytotoxicity by detecting two distinct protease activities. The live-cell protease activity is restricted to intact viable cells and is measured using a fluorogenic, cell-permeant peptide glycyl-phenylalanylamino fluorocoumarin (GF-AFC) substrate. The substrate enters intact cells, where it is cleaved to generate a fluorescent signal proportional to the number of living cells. […] A second, cell-impermeant, fluorogenic peptide substrate (bis-AAF-R110 Substrate) is used to measure dead-cell protease that has been released from cells that have lost membrane integrity. A ratio of dead to live cells is used to normalize data.
Briefly, the tet-inducible transgenic APOL1 T-REx-HEK293 cell lines were incubated with 50 ng/mL tet to induce APOL1 in the presence of 3-(2-(4-fluorophenyl)-1H-indol-3-yl)-N-((3S,4R)-4-hydroxy-2-oxopyrrolidin-3-yl)propenamide at […], 0.0045, 0.0015, 0.0005 μM in duplicate for 24 hours in a humidified 37° C. incubator. The MultiTox reagent was added to each well and placed back in the incubator for an additional 30 minutes. The plate was read on the EnVision plate reader. A ratio of dead to live cells was used to normalize, and data was imported, analyzed and fit using Genedata Screener (Basel, Switzerland) software. Data was normalized using percent of control, no tet (100% viability), and 50 ng/mL tet treated (0% viability), and fit using Smart Fit. The reagents, methods, and complete protocol for the MultiTox assay are described below.
Human embryonic kidney (HEK293) cell lines containing a tet-inducible expression system (T-REx™; Invitrogen, Carlsbad, CA) and Adeno-associated virus site 1 pAAVS1-Puro-APOL1 G0 or pAAVS1-Puro-APOL1 G1 or pAAVS1-Puro-APOL1 G2 Clones G0 DC2.13, G1 DC3.25, and G2 DC4.44 were grown in a T-225 flask at ˜90% confluency in cell growth media (DMEM, 10% Tet-free FBS, 2 mM L-glutamine, 100 Units/mL penicillin-streptomycin, 5 μg/mL blasticidin S HCl, 1 μg/mL puromycin dihydrochloride). Cells were washed with DPBS and then trypsinized to dissociate from the flask. Media was used to quench the trypsin, cells were then pelleted at 200 g and resuspended in fresh cell assay media (DMEM, 2% Tet-free FBS, 2 mM L-glutamine, 100 Units/mL penicillin-streptomycin). Cells were counted and diluted to 1.17×10^6 cells/mL. 20 μL of cells (23,400/well) were dispensed to every well of a 384-well Poly-D-Lysine coated plate using the Multidrop dispenser. The plates were then incubated at room temperature for one hour.
Tetracycline is needed to induce APOL1 expression. 1 mg/mL tet stock in water was diluted to 250 ng/mL (5×) in cell assay media. 60 μL of cell assay media (no tet control) was dispensed in columns 1 and 24, and 60 μL of 5× tet was dispensed in 384-PP-round bottom plate in columns 2 to 23 with the Multidrop dispenser.
Assay ready plates from the Global Compound Archive were ordered using template 384_APOL1Cell_DR10n2_50 μM_v3. Compounds were dispensed at 200 nL in DMSO. The final top concentration was 10 μM with a 10 point 3-fold dilution in duplicate in the MultiTox assay.
20 μL were transferred from the 5× tet plate to the ARP and mixed, then 5 μL of 5× tet and the compounds were transferred to the cell plate and mixed using the Bravo. The cell plate was placed in the humidified 37° C. 5% CO2 incubator for 24 hours.
The MultiTox-Fluor Multiplex Cytotoxicity Assay was performed in accordance with the manufacturer's protocol. After cells were incubated with tet and compound for 24 hours, 25 μL of 1× MultiTox reagent was added to each well using the Multidrop dispenser; the plates were placed on a plate shaker (600 rpm) for 2 minutes, then centrifuged briefly and placed back in the 37° C. incubator for 30 minutes. […]

The IC90 is the concentration needed for an effect of 90%. A low value points to an effect from little substance. A word on the pIC50: it is the IC50 on a negative log10 scale, so that one unit is a factor of ten. A higher pIC50 goes with a low IC50. In the case of `COCC1([C@@H]2C[C@]3(C[C@H](C)N2)OCCc2cc(Cl)sc23)CC1` (racemic) [Compound 376], the IC90 lay within 0.05 to 0.5 µM, the Emax is 99% and the pIC50 was 6.30 to 7.30.

As to `C[C@H]1C[C@@]2(C[C@@H](C3(C#N)CC3)N1)OCCc1cc(Cl)sc12` (racemic) [Compound 377], the IC90 is > 0.5 µM, the Emax came to 98% and the pIC50 is 6.30 to 7.30.

Turning to `C[C@H]1C[C@@]2(C[C@@H](C3(N(C)C)CC3)N1)OCCc1cc(Cl)sc12` (racemic) [Compound 378], the IC90 is 0.05 to 0.5 µM, the Emax is 99% and the pIC50 was > 7.30.

`CCOC(=O)C1CC1[C@@H]1C[C@]2(C[C@H](C)N1)OCCc1cc(Cl)sc12` (stereo in doubt) [Compound 374]: the IC90 lay within 0.05 to 0.5 µM, the Emax turned out to be 99% and the pIC50 is > 7.30.

Consider `CCOC(=O)C1CC1[C@@H]1C[C@]2(C[C@H](C)N1)OCCc1cc(Cl)sc12` (stereo in doubt) [Compound 375], for which the IC90 was in the range of 0.05 to 0.5 µM and the pIC50 is > 7.30.

Consider `C[C@H]1C[C@@]2(C[C@@H](c3cn(CCO)nn3)N1)OCC(F)(F)c1cc(Cl)sc12` [Compound 361], for which the Emax was 98% and the pIC50 was > 7.30.

Consider `COc1ccc(Cn2cc([C@@H]3C[C@]4(C[C@H](C)N3)OCC(F)(F)c3cc(Cl)sc34)nn2)cc1F` [Compound 362], for which the Emax stood at 98%.

On to `C[C@H]1C[C@@]2(C[C@@H](c3cn(C[C@@H](O)CO)nn3)N1)OCC(F)(F)c1cc(Cl)sc12` [Compound 363], for which the Emax was found to be 99% and the pIC50 was > 7.30.

In the case of `C[C@H]1C[C@@]2(C[C@@H](c3cn(CC(C)(C)O)nn3)N1)OCC(F)(F)c1cc(Cl)sc12` [Compound 364], the Emax worked out at 95%.

Turning to `C[C@H]1C[C@@]2(C[C@@H](c3cn(Cc4cncs4)nn3)N1)OCC(F)(F)c1cc(Cl)sc12` [Compound 365], the Emax was determined as 99% and the pIC50 is > 7.30.

As to `C[C@H]1C[C@@]2(C[C@@H](c3cn(Cc4ccc5nc(O)[nH]c5c4)nn3)N1)OCC(F)(F)c1cc(Cl)sc12` [Compound 366], the Emax came out at 95%.

For `C[C@H]1C[C@@]2(C[C@@H](c3cn(CCC(C)(C)O)nn3)N1)OCC(F)(F)c1cc(Cl)sc12` [Compound 367], the Emax amounted to 99% and the negative-log IC50 (pIC50) is > 7.30.

`C[C@H]1C[C@@]2(C[C@@H](c3cn(CC4CCC(=O)NC4)nn3)N1)OCC(F)(F)c1cc(Cl)sc12` (stereo partly drawn) [Compound 368]: the Emax was found to be 96%.

`C[C@H]1C[C@@]2(C[C@@H](c3cn(CC#N)nn3)N1)OCC(F)(F)c1cc(Cl)sc12` [Compound 369]: the Emax is 98%.

For `CC(CO)Cn1cc([C@@H]2C[C@]3(C[C@H](C)N2)OCC(F)(F)c2cc(Cl)sc23)nn1` (stereo partly drawn) [Compound 370], the Emax was determined as 99%.

On to `C[C@H](CO)Cn1cc([C@@H]2C[C@]3(C[C@H](C)N2)OCC(F)(F)c2cc(Cl)sc23)nn1` [Compound 371], for which the IC90 was in the range of 0.05 to 0.5 µM, the Emax is 99% and the pIC50 is > 7.30.

On to `COC(=O)C1([C@@H]2C[C@]3(C[C@H](C)N2)OCCc2cc(Cl)sc23)CC1` [Compound 372, methyl 1-[(2′S, 6′S, 7S)-2-chloro-6′-methyl-spiro[4,5-dihydrothieno[2,3-c]pyran-7,4′-piperidine]-2′-yl]cyclopropanecarboxylate], for which the Emax turned out to be 92% and the pIC50 is < 6.30.

As for `C[C@H]1C[C@@]2(C[C@@H](C3(N)CC3)N1)OCCc1cc(Cl)sc12` [Compound 373, 1-[(2′S,6′S,7S)-2-chloro-6′-methyl-spiro[4,5-dihydrothieno[2,3-c]pyran-7,4′-piperidine]-2′-yl]cyclopropanamine], the Emax came to 99% and the pIC50 was > 7.30.

In the case of `CC(=O)NC1([C@@H]2C[C@]3(C[C@H](C)N2)OCCc2cc(Cl)sc23)CC1` [Compound 379, N-[1-[(2′S,6′S, 7S)-2-chloro-6′-methyl-spiro[4,5-dihydrothieno[2,3-c]pyran-7,4′-piperidine]-2′-yl]cyclopropyl]acetamide], the Emax stood at 94% and the pIC50 was < 6.30.

In the case of `C[C@H]1C[C@@]2(C[C@@H](C3(CO)CC3)N1)OCCc1cc(Cl)sc12` [Compound 380, [1-[(2′S,6′S, 7S)-2-chloro-6′-methyl-spiro[4,5-dihydrothieno[2,3-c]pyran-7,4′-piperidine]-2′-yl]cyclopropyl]methanol], the Emax was found to be 99% and the pIC50 is > 7.30.

As for `Cn1cc([C@@H]2C[C@]3(C[C@H](C4CC4)N2)OCCc2cc(Cl)sc23)nn1` [Compound 381, (2′R,6′S, 7S)-2-chloro-2′-cyclopropyl-6′-(1-methyltriazol-4-yl)spiro[4,5-dihydrothieno[2,3-c]pyran-7,4′-piperidine]], the pIC50 was > 7.30.

In the case of `Cn1cc([C@@H]2C[C@]3(C[C@H](C4CC4)N2)OC[C@@H](O)c2cc(Cl)sc23)nn1` [Compound 382, (2′R,4S,6′S, 7S)-2-chloro-2′-cyclopropyl-6′-(1-methyltriazol-4-yl)spiro[4,5-dihydrothieno[2,3-c]pyran-7,4′-piperidine]-4-ol], the pIC50 was > 7.30.

Consider `Cn1cc([C@@H]2C[C@]3(C[C@H](C4CC4)N2)OCCc2cc(C(F)(F)F)sc23)nn1` [Compound 383, (2′R,6′S,7S)-2′-cyclopropyl-6′-(1-methyltriazol-4-yl)-2-(trifluoromethyl)spiro[4,5-dihydrothieno[2,3-c]pyran-7,4′-piperidine]], for which the pIC50 was > 7.30.

For `C[C@H]1C[C@@]2(C[C@@H](c3cn(C)nn3)N1)OCC(C)(O)c1cc(C(F)(F)F)sc12` (stereo partly drawn) [Compound 384, (2′S,6′S, 7S)-2′,4-dimethyl-6′-(1-methyltriazol-4-yl)-2-(trifluoromethyl)spiro[5H-thieno[2,3-c]pyran-7,4′-piperidine]-4-ol], the pIC50 is > 7.30.

Take `C[C@H]1C[C@@]2(C[C@@H](c3cn(C)nn3)N1)OC[C@@H](O)c1cc(C(F)(F)F)sc12` [Compound 386, (2S,4S,4′S,6S)-2-methyl-6-(1-(methyl-^13C-d3)-1H-1,2,3-triazol-4-yl)-2′-(trifluoromethyl)-4′,5′-dihydrospiro[piperidine-4,7′-thieno[2,3-c]pyran]-5-^13C-4′-ol]: the IC90 is < 0.05 µM and the pIC50 was > 7.30.
